Measured values from US9827219B2, “Compositions and methods for lowering levels of high-sensitivity C-reactive protein (HS-CRP) in a subject” (priority 2012, dated 2017).

What was measured:
Format in all cases: in vivo, human
[1] = tested on: Ox-LDL; test: MARINE study, oxidized LDL; details: MARINE ITT, week 12
Text: Parameters (a)-(y) can be measured in accordance with any clinically acceptable methodology. For example, triglycerides, total cholesterol, HDL-C and fasting blood sugar can be sample from serum and analyzed using standard photometry techniques. VLDL-TG, LDL-C and VLDL-C can be calculated or determined using serum lipoprotein fractionation by preparative ultracentrifugation and subsequent quantitative analysis by refractometry or by analytic ultracentrifugal methodology. Apo A1, Apo B and hsCRP can be determined from serum using standard nephelometry techniques. Lipoprotein (a) can be determined from serum using standard turbidimetric immunoassay techniques. LDL particle number and particle size can be determined using nuclear magnetic resonance (NMR) spectrometry. Remnants lipoproteins and LDL-phospholipase A2 can be determined from EDTA plasma or serum and serum, respectively, using enzymatic immunoseparation techniques. Oxidized LDL, intercellular adhesion molecule-1 and interleukin-2 levels can be determined from serum using standard enzyme immunoassay techniques. These techniques are described in detail in standard textbooks, for example Tietz Fundamentals of Clinical Chemistry, 6th Ed. (Burtis, Ashwood and Borter Eds.), WB Saunders Company. […]

[2] = Safety and tolerability (adverse events), AAMI pilot study (Example 1); details: for TEAE Probably Related to the study drug: one subject
Experimental: All randomized subjects that received at least 1 dose of study medication were included in the Safety Population.
Safety evaluations were based on the safety population. Safety and tolerability were assessed in terms of AEs, vital signs, 12-lead ECG, clinical laboratory data, medical history, and study drug compliance. Safety and tolerability data were presented by treatment group.

[3] = tested on: RLP-C; test: RLP-C in patients with diabetes mellitus-2 (Example 2); details: 4 g/day, 12 weeks, on statin
Text: Parameters (a)-(y) can be measured in accordance with any clinically acceptable methodology. For example, triglycerides, total cholesterol, HDL-C and fasting blood sugar can be sample from serum and analyzed using standard photometry techniques. VLDL-TG, LDL-C and VLDL-C can be calculated or determined using serum lipoprotein fractionation by preparative ultracentrifugation and subsequent quantitative analysis by refractometry or by analytic ultracentrifugal methodology. Apo A1, Apo B and hsCRP can be determined from serum using standard nephelometry techniques. Lipoprotein (a) can be determined from serum using standard turbidimetric immunoassay techniques. LDL particle number and particle size can be determined using nuclear magnetic resonance (NMR) spectrometry. Remnants lipoproteins and LDL-phospholipase A2 can be determined from EDTA plasma or serum and serum, respectively, using enzymatic immunoseparation techniques. Oxidized LDL, intercellular adhesion molecule-1 and interleukin-2 levels can be determined from serum using standard enzyme immunoassay techniques. These techniques are described in detail in standard textbooks, for example Tietz Fundamentals of Clinical Chemistry, 6th Ed. (Burtis, Ashwood and Borter Eds.), WB Saunders Company.
The effect of >96% E-EPA on lipid and inflammatory parameters was evaluated in patients with fasting triglyceride levels ≧150 mg/dl and <499 mg/dl on concomitant statin therapy. Patients with diabetes mellitus-2 were randomized and treated with either 2 g/day >96% E-EPA, 4 g/day >96%, or placebo for twelve weeks. At the end of the treatment period, several diabetes efficacy endpoints were evaluated including, TG, LDL-C, non-HDL-C, VLDL-C, Lp-PLA2, Apo B, TC, HDL-C, VLDL-TG, hs-CRP, oxLDL, and RLP-C.

Q: Which “Ox-LDL change from baseline (median)” value ([1]; 2 g/day) does the source give for `CC/C=C\C/C=C\C/C=C\C/C=C\C/C=C\CCCC(=O)OCC` [AMR101, all-cis eicosa-5,8,11,14,17-pentaenoic acid ethyl ester] here?
A: Its value is 0.4%.

Q: And the “Ox-LDL change from baseline (median)” value ([1]; 4 g/day)?
A: The value was −3.0%.

Q: What about the “Subjects with nausea Possibly Related to the study drug” value (shortened to “Subjects with nausea Possibly Related”) ([2]; 1 g cohort) of the same compound?
A: The value was “two”.

Q: What about the “TEAE Probably Related to the study drug” value ([2]; 1 g) of the same compound?
A: Its value is “nausea”.

Q: What about the “Subjects with nausea Possibly Related” value ([2]; 2 g cohort) of the same compound?
A: Its value is “one”.

Q: What about the SAE reported ([2]; 2 g treatment group) of the same compound?
A: Its SAE reported is “One”.

Q: And the “Subjects discontinued due to TEAEs” value ([2]; 2 g treatment group)?
A: Its value is 2 subjects.

Q: What about the “Subjects with nausea Possibly Related” value ([2]; 4 g cohort) of the same compound?
A: The value was “two”.

Q: What about the “TEAE Probably Related to the study drug” value ([2]; 4 g) of the same compound?
A: Its value is “diarrhea”.

Q: And the “Deaths during the study” value ([2]; all groups)?
A: Its value is “no deaths”.

Q: What about the “TEAEs Definitely Related to the study drug” value ([2]; all groups) of the same compound?
A: Its value is “No TEAEs were Definitely Related”.

Q: And the “Treatment emergent AEs (TEAEs) reported” value ([2]; ethyl-EPA treatment groups (1, 2, 4 g), 6 weeks, placebo groups 34 events)?
A: Its value is 105 events.

Q: And the “Relatedness of the SAE (worsening epigastric chest pain)” value ([2]; one subject receiving 2 g)?
A: Its value is “unrelated to the study drug”.

Q: And the “Severity and relatedness of most TEAEs” value ([2]; whole study)?
A: The value was “mild in severity and unrelated to study drug”.

Q: What about the “Median placebo-adjusted percent change in RLP-C from baseline to study end” value (shortened to “Median placebo-adjusted percent change”) ([3]; less-controlled diabetes (HbA1c ≧ median of 6.8%)) of the same compound?
A: Its value is −21.3%.

Q: What about the “Median placebo-adjusted percent change” value ([3]; total diabetes) of the same compound?
A: Its value is −25.0%.

Q: What about the “Median placebo-adjusted percent change” value ([3]; well-controlled diabetes (HbA1c < median of 6.8%)) of the same compound?
A: Its value is −26.7%.
